Reference: patent US20060252807A1, “Novel ortho-terphenyl inhibitors of p38 kinase and methods of treating inflammatory disorders” (Kalypsys, Inc., priority 2005, published 2006)

molecular target: T1, active p38 alpha enzyme (Upstate Biotechnology) (Homo sapiens, UniProt Q16539); assay: p38α biochemical assay (ATP turnover, luminescent detection, Cambrex PKlight); conditions: p38α biochemical assay, Table 1 Biological Activity
T1 construct: purchased Upstate Biotechnology
Method: The p38α biochemical assay employed is based on measurement of total ATP turnover following enzyme incubation with substrate in the presence of ATP with the use of a luminescent detection reagent (Cambrex PKlight). The assays were performed in 1536-well white opaque plates.
The final volume was 7.5005 μL as prepared prepared from the addition of 5 ul of kinase reaction (p38 alpah+MapkapK2+ATP) with 0.0005 μL compound dissolved in DMSO, and 2.5 ul of the detection reagent. Assay buffer contains the following reagents to give final concentration in the assay: 200 mM Tris, 100 mM MgCl2, 1.5 mM EGTA, 4 mM CaCl2, 20 mM MOPS, 1 mM EDTA, 1% glycerol, 0.1% B-Mecaptoethanol, and 1 mg/ml BSA. Test compounds are pinned using proprietary pintool technology (Kalypsys, Inc) and delivered as […] amounts into the 5 ul mixture of active p38 alpha enzyme (Upstate Biotechnology) and MapkapK2 (Upstate Biotechnology) whole protein as a substrate for phosphorylation in the presence of 1.4 uM final concentration ATP. Reactions are incubated at 30C for 2 hours and detection reagent is added in 2.5 ul/well amounts. Assay is read using a Perkin Elmer Viewlux.

T1 sequence (Q16539 whole entry): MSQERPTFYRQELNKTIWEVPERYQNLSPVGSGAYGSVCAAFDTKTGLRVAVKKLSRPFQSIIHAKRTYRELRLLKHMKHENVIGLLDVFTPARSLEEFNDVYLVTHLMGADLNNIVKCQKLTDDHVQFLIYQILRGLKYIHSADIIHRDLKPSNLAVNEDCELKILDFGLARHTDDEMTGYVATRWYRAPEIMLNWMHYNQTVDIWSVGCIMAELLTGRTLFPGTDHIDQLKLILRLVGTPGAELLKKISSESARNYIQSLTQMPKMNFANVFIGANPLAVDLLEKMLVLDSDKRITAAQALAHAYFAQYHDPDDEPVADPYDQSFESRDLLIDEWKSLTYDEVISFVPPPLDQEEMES

IC50 [µM]	Molecule
≤ 1	Cc1onc(-c2ccc(Cl)cc2)c1-c1ccn(C(=O)NC(C)C)n1 [Example 2, 3-|3-(4-Chloro-phenyl)-5-methyl-isoxazol-4-yl|-pyrazole-1-carboxylic acid isopropylamide]
> 1	CNC(=O)n1ccc(-c2c(-c3ccc(Cl)cc3)noc2C)n1 [Example 3, 3-|3-(4-Chloro-phenyl)-5-methyl-isoxazol-4-yl|-pyrazole-1-carboxylic acid methylamide]
≤ 1	CCC(C)NC(=O)n1ccc(-c2c(-c3ccc(Cl)cc3)noc2C)n1 (stereo not drawn) [Example 4, 3-|3-(4-Chloro-phenyl)-5-methyl-isoxazol-4-yl|-pyrazole-1-carboxylic acid sec-butylamide]
≤ 1	Cc1onc(-c2ccc(Cl)cc2)c1-c1ccn(C(=O)NCCO)n1 [Example 5, 3-|3-(4-Chloro-phenyl)-5-methyl-isoxazol-4-yl|-pyrazole-1-carboxylic acid (2-hydroxy-ethyl)-amide]
≤ 1	Cc1onc(-c2ccc(Cl)cc2)c1-c1ccn(C(=O)NC(C)CO)n1 (stereo not drawn) [Example 6, 3-|3-(4-Chloro-phenyl)-5-methyl-isoxazol-4-yl|-pyrazole-1-carboxylic acid (2-hydroxy-1-methyl-ethyl)-amide]
> 1	Cc1onc(-c2ccc(Cl)cc2)c1-c1ccn(C(=O)NC2CC2)n1 [Example 7, 3-|3-(4-Chloro-phenyl)-5-methyl-isoxazol-4-yl|-pyrazole-1-carboxylic acid cyclopropylamide]
≤ 1	Cc1onc(-c2ccc(Cl)cc2)c1-c1ccn(C(=O)NC2CCCCC2)n1 [Example 8, 3-|3-(4-Chloro-phenyl)-5-methyl-isoxazol-4-yl|-pyrazole-1-carboxylic acid cyclohexylamide]
≤ 1	Cc1onc(-c2ccc(Cl)cc2)c1-c1ccn(C(=O)NC2CCCC2)n1 [Example 9, 3-|3-(4-Chloro-phenyl)-5-methyl-isoxazol-4-yl|-pyrazole-1-carboxylic acid cyclopentylamide]
> 1	Cc1onc(-c2ccc(Cl)cc2)c1-c1ccn(C(=O)NC2Cc3ccccc3C2)n1 [Example 10, 3-|3-(4-Chloro-phenyl)-5-methyl-isoxazol-4-yl|-pyrazole-1-carboxylic acid indan-2-ylamide]
> 1	Cc1onc(-c2ccc(Cl)cc2)c1-c1ccn(C(=O)NCc2ccco2)n1 [Example 11, 3-|3-(4-Chloro-phenyl)-5-methyl-isoxazol-4-yl|-pyrazole-1-carboxylic acid (furan-2-ylmethyl)-amide]
> 1	Cc1onc(-c2ccc(Cl)cc2)c1-c1ccn(C(=O)NCC2CCCO2)n1 (stereo not drawn) [Example 12, 3-|3-(4-Chloro-phenyl)-5-methyl-isoxazol-4-yl|-pyrazole-1-carboxylic acid (tetrahydro-furan-2-ylmethyl)-amide]
> 1	Cc1onc(-c2ccc(Cl)cc2)c1-c1ccn(C(=O)N(C)C(C)C)n1 [Example 13, 3-|3-(4-Chloro-phenyl)-5-methyl-isoxazol-4-yl|-pyrazole-1-carboxylic acid isopropyl-methyl-amide]
> 1	Cc1onc(-c2ccc(Cl)cc2)c1-c1ccn(C(=O)NC(CO)CO)n1 [Example 14, 3-|3-(4-Chloro-phenyl)-5-methyl-isoxazol-4-yl|-pyrazole-1-carboxylic acid (2-hydroxy-1-hydroxymethyl-ethyl)-amide]
≤ 1	Cc1onc(-c2ccc(Cl)cc2)c1-c1ccn(C(=O)NCC(C)C)n1 [Example 15, 3-|3-(4-Chloro-phenyl)-5-methyl-isoxazol-4-yl|-pyrazole-1-carboxylic acid isobutyl-amide]
≤ 1	Cc1onc(-c2ccc(Cl)cc2)c1-c1cc(C)n(C(=O)NC(C)C)n1 [Example 16, 3-|3-(4-Chloro-phenyl)-5-methyl-isoxazol-4-yl|-5-methyl-pyrazole-1-carboxylic acid isopropylamide]
> 1	Cc1onc(-c2cccc(C(F)(F)F)c2)c1-c1ccn(C(=O)NC(C)C)n1 [Example 19, 3-|5-Methyl-3-(3-trifluoromethyl-phenyl)-isoxazol-4-yl|-pyrazole-1-carboxylic acid isopropylamide]
> 1	Cc1onc(-c2ccc(Cl)cc2)c1-c1ccn(C(=O)CC(C)C)n1 [Example 20, 1-{3-|3-(4-Chloro-phenyl)-5-methyl-isoxazol-4-yl|-pyrazol-1-yl}-3-methyl-butan-1-one]

IC50 [µM]	Molecule
≤ 1	Cc1onc(-c2ccc(F)cc2Cl)c1-c1ccn(C(=O)NC(C)C)n1 [Example 21, 3-|3-(2-Chloro-4-fluoro-phenyl)-5-methyl-isoxazol-4-yl|-pyrazole-1-carboxylic acid isopropylamide]
≤ 1	COCc1onc(-c2ccc(Cl)cc2)c1-c1ccn(C(=O)NC(C)C)n1 [Example 22, 3-|3-(4-Chloro-phenyl)-5-methoxymethyl-isoxazol-4-yl|-pyrazole-1-carboxylic acid isopropylamide]
≤ 1	Cc1onc(-c2ccc(F)c(Cl)c2)c1-c1ccn(C(=O)NC(C)C)n1 [Example 23, 3-|3-(3-Chloro-4-fluoro-phenyl)-5-methyl-isoxazol-4-yl|-pyrazole-1-carboxylic acid isopropylamide]
> 1	Cc1cc(Cl)ccc1-c1noc(C)c1-c1ccn(C(=O)NC(C)C)n1 [Example 24, 3-|3-(4-Chloro-2-methyl-phenyl)-5-methyl-isoxazol-4-yl|-pyrazole-1-carboxylic acid isopropylamide]
≤ 1	CC(C)NC(=O)n1ccc(-c2c(-c3ccc(F)cc3)noc2CN(C)C)n1 [Example 25, 3-|5-Dimethylaminomethyl-3-(4-fluoro-phenyl)-isoxazol-4-yl|-pyrazole-1-carboxylic acid isopropylamide]
≤ 1	CC(C)NC(=O)c1csc(-c2c(-c3ccc(F)cc3)noc2CN2CCNCC2)n1 [Example 28, 2-|3-(4-Fluoro-phenyl)-5-piperazin-1-ylmethyl-isoxazol-4-yl|-thiazole-4-carboxylic acid isopropylamide]
≤ 1	CC(C)NC(=O)c1csc(-c2c(-c3ccc(F)cc3)noc2CN(C)C)n1 [Example 29, 2-|5-Dimethylaminomethyl-3-(4-fluoro-phenyl)-isoxazol-4-yl|-thiazole-4-carboxylic acid isopropylamide]
> 1	CC(C)NC(=O)c1csc(-c2c(-c3ccc(F)cc3)noc2CN2CCCCC2)n1 [Example 30, 2-|3-(4-Fluoro-phenyl)-5-piperidin-1-ylmethyl-isoxazol-4-yl|-thiazole-4-carboxylic acid isopropylamide]
> 1	CCOC(=O)N1CCC(NCc2onc(-c3ccc(F)cc3)c2-c2nc(C(=O)NC(C)C)cs2)CC1 [Example 31]
> 1	CC(C)NC(=O)c1csc(-c2c(-c3ccc(F)cc3)noc2CNCCO)n1 [Example 32, 2-{3-(4-Fluoro-phenyl)-5-|(2-hydroxy-ethylamino)-methyl|-isoxazol-4-yl}-thiazole-4-carboxylic acid isopropylamide]
> 1	COCCNCc1onc(-c2ccc(F)cc2)c1-c1nc(C(=O)NC(C)C)cs1 [Example 33, 2-{3-(4-Fluoro-phenyl)-5-|(2-methoxy-ethylamino)-methyl|-isoxazol-4-yl}-thiazole-4-carboxylic acid isopropylamide]
≤ 1	Cc1onc(-c2ccc(F)cc2)c1-c1csc(C(=O)NC(C)C)n1 [Example 34]
≤ 1	CC(C)NC(=O)c1csc(-c2c(-c3ccc(F)cc3)noc2C2CCN(C(=O)CO)CC2)n1 [Example 36, 2-{3-(4-Fluoro-phenyl)-5-|1-(2-hydroxy-acetyl)-piperidin-4-yl|-isoxazol-4-yl}-thiazole-4-carboxylic acid isopropylamide]
≤ 1	CC(C)NC(=O)c1coc(-c2c(-c3ccc(F)cc3)noc2C2CCNCC2)n1 [Example 37, 2-|3-(4-Fluoro-phenyl)-5-piperidin-4-yl-isoxazol-4-yl|-oxazole-4-carboxylic acid isopropylamide]
> 1	Cc1nc(-c2ccc(F)cc2)c(-c2nc(C(N)=O)cs2)o1 [Example 39, 2-|4-(4-Fluoro-phenyl)-2-methyl-oxazol-5-yl|-thiazole-4-carboxylic acid amide]
≤ 1	CC(C)NC(=O)c1csc(-c2oc(CN(C)C)nc2-c2ccc(F)cc2)n1 [Example 42, 2-|2-Dimethylaminomethyl-4-(4-fluoro-phenyl)-oxazol-5-yl|-thiazole-4-carboxylic acid isopropylamide]

same assay, conditions: p38α kinase; Table 1 Biological Activity

IC50 [µM]	Molecule
> 1	2-|4-(4-Fluoro-phenyl)-5-oxo-2,5-dihydro-isoxazol-3-yl|-thiazole-4-carboxylic acid isopropyl amide [Example 2181]
> 1	COCCOCn1nc(-c2ccc(F)cc2)c(-c2nc(C=NOC)cs2)c1C (single isomer, unassigned) [Example 2186, 2-|3-(4-Fluoro-phenyl)-1-(2-methoxy-ethoxymethyl)-5-methyl-1H-pyrazol-4-yl|-thiazole-4-carbaldehyde O-methyl-oxime]
> 1	COCCOCn1nc(-c2ccc(F)cc2)c(-c2nc(C=NOC)cs2)c1C (single isomer, unassigned) [Example 2187, 2-|3-(4-Fluoro-phenyl)-1-(2-methoxy-ethoxymethyl)-5-methyl-1H-pyrazol-4-yl|-thiazole-4-carbaldehyde O-methyl-oxime]
